Laboratory results as given in patent US20110097332A1, “Composition and Method of Use for HCV Immunization” (priority 2007, published 2011).
“Also recorded” adds a separate entry of the source. Read-outs that look alike come from different tables or passages of the source. Primed or numbered codes have the meaning given here. FITC′ = not defined here

B1: cyclin G, endogenous, in primary mouse hepatocytes (other)
chain: MIEVLTTDSQKLLHQLNTLLEQESRCQPKVCGLKLIESAHDNGLRMTARLRDFEVKDLLSLTQFFGFDTETFSLAVNLLDRFLSKMKVQAKHLGCVGLSCFYLAVKATEEERNVPLATDLIRISQYRFTVSDLMRMEKIVLEKVCWKVKATTAFQFLQLYYSLVHDTLPFERRNDLNFERLEAQLKACHCRIIFSKAKPSVLALSILALEIQALKYVELTEGVECIQKHSKISGRDLTFWQELVSKCLTEYSSNKCSKPNGQKLKWIVSGRTARQLKHSYYRITHLPTIPETIC

Columns and labels:
E2 = assay: binding of the mutant AP50 peptide to E2; parameters: species or system HCV
HCV E2 = assay: in vitro phosphorylation assay of AP50 by recombinant E2 (cell-free, 32P ATP); format: biochemical; conditions: peptide added to the phosphorylation assay
Protocol: AP50 was immunopurified from untransfected primary hepatocytes and subjected to heat inactivation of any associated kinases. Recombinant wild type or mutated E2 were combined with AP50 in the presence of ^32P ATP (MP Biomedicals cat. #35020) and kinase buffer (50 mM Tris-HCL, pH 7.5, 5 mM MgCl2). The reaction was incubated at room temperature for 1 hour, and run on an SDSPAGE, transferred to a membrane and exposed to film overnight, as described previously (8; 57; 63).

[1] = test system: HCV-infected primary human hepatocytes; assay: cell toxicity (LDH in medium) of HCV-infected primary human hepatocytes; format: cell-based
Protocol: Toxicity of HCV E2 mutants to human hepatocyte cultures was determined by measuring lactic dehydrogenase (LDH) (Sigma) and alanine aminotransferase (ALT) (Weiner Laboratories) in the medium. Positive (Jo2 Ab) and negative (untreated cells) control samples were determined in parallel. LDH assays of culture media were measurements of cellular leakage that indicates cell injury. ALT was enriched in hepatocytes and it's presence in serum or cell culture media was a classic indicator of hepatocyte injury. Indeed, it is the FDA's gold standard for hepatocellular toxicity.

[2] = test system: HCV genotypes 1, 3, and 4; assay: HCV infection/replication in primary human hepatocytes, HCV RNA by RT-PCR; format: cell-based
Text: (§1) Hepatocytes were obtained (from Tissue Transformation Technologies [Edison, N.J.]) from anonymous organ donors without liver disease that were not suitable for liver transplantation for technical but not medical reasons. These donors are negative For Hepatitis A, B and C, CMV, HIV, HTLV ½, and RPR-STS. Hepatocytes cultures with >5% apoptosis by annexin-V assays and/or increases >3-fold in ALT were discarded.
Hepatocytes were isolated from an encapsulated liver sample by a modified two-step perfusion technique introduced by Seglen (63). Briefly, the dissected lobe was placed into a custom-made perfusion apparatus and two to five hepatic vessels were cannulated with tubing attached to a multi-channel manifold. A liver fragment (150 to 500 g) was perfused initially (recirculation technique) with calcium-free HBSS supplemented with 0.5 mM EGTA for 20 to 30 min and then with 0.05% collagenase [Sigma] dissolved in L-15 medium (with calcium) at 37° C. until the tissue was fully digested. The digested liver was removed, immediately cooled with ice-cold L-15 medium and the cell suspension was strained through serial progressively smaller stainless steel sieves, with a final filtration through 100-micron and 60-micron nylon mesh. The filtered cell suspension was aliquoted into 250-ml tubes and centrifuged three times at 40 g for 3 min at 4° C. […]

[3] = test system: HCV-infected primary human hepatocytes; assay: cell permeability and co-localization with E2 in HCV-infected primary human hepatocytes (immuno-staining, FITC tag); format: cell-based
Text: as §1
Hepatocytes were isolated from an encapsulated liver sample by a modified two-step perfusion technique introduced by Seglen (63). Briefly, the dissected lobe was placed into a custom-made perfusion apparatus and two to five hepatic vessels were cannulated with tubing attached to a multi-channel manifold. A liver fragment (150 to 500 g) was perfused initially (recirculation technique) with calcium-free HBSS supplemented with 0.5 mM EGTA for 20 to 30 min and then with 0.05% collagenase [Sigma] dissolved in L-15 medium (with calcium) at 37° C. until the tissue was fully digested. The digested liver was removed, immediately cooled with ice-cold L-15 medium and the cell suspension was strained through serial progressively smaller stainless steel sieves, with a final filtration through 100-micron and 60-micron nylon mesh. The filtered cell suspension was aliquoted into 250-ml tubes and centrifuged three times at 40 g for 3 min at 4° C. After the last centrifugation, the cells were re-suspended, in HypoThermosol-FRS [BioLife Solutions, Inc] combined in one tube and placed on ice.
Cells were centrifuged at 700 rpm for 5 min at 4° C., the supernatant was removed and the cells were washed with Hanks Wash Solution ([…] KCl 0.4 g/l; 4.4 mM KH2PO 0.06 g/l; […] NaCl 8 g/l; 3.4 mM Na2HPO4 0.048 g/l; 20 μL CaCl2 (2M)) three times. […]
Fluorescent labels were observed using a triple-channel fluorescence microscope or a laser scanning confocal microscope. […] At least 100 cells were analyzed per experimental point (9). The nuclear morphology was analyzed by staining cells with TOPRO-3 (R&D Systems).

HCV E2 Y228F mutant = HCV E2 Y228F mutant (hepatitis C virus (HCV), UniProt P26664 384-746, Y228F); assay: co-immunopurification with anti-cyclin G antibodies, primary mouse hepatocytes
HCV E2 Y228E mutant = HCV E2 Y228E mutant (hepatitis C virus (HCV), UniProt P26664 384-746, Y228E); assay: as above
[4] = listed as dominant negative peptide of the AP50 phospho-acceptor
[5] = primary hepatocyte infection system

Molecule	binding to E2 (E2)	auto-phosphorylation of E2 (HCV E2)	phosphorylation of AP50 by recombinant E2 (E2 kinase activity) (HCV E2; [4])	phosphorylation of AP50 by recombinant E2 (E2 kinase activity) (HCV E2; listed as dominant negative peptide of the E2 consensus phosphorylation site)	phosphorylation of AP50 by recombinant E2 (E2 kinase activity) (HCV E2; listed as mutant AP50 peptide)	toxicity at termination of the experiment ([1]; 120 hours, in the presence of the peptide)	LDH levels (hepatocyte toxicity) ([1]; peptide added to the media at 72 hours post HCV infection)	hepatocyte toxicity induced by the peptide [1, 5]	HCV replication (HCV RNA by RT-PCR) ([2]; peptide added at the time of HCV infection, genotypes 1, 3, and 4)	HCV infection [2, 5]	cell permeability [3]	co-localization / association with HCV E2 [3]	co-localization / association with HCV E2 [3, 4]	binding result (HCV E2 Y228F mutant)	binding result (HCV E2 Y228E mutant)
NH2-QGEVQRRRQRRKKRGYGGGG-FITC (H-QGEVQRRRQRRKKRGYGGGG-{FITC′}) [AP50 peptide]	high affinity	unaffected	blocks the in vitro kinase activity of E2	blocked	able to block the phosphorylation of AP50 by recombinant E2 in vitro; also recorded: blocks AP50 phosphorylation by E2	comparable to that of uninfected cells	LDH levels began to decrease	without inducing hepatocyte toxicity	inhibits HCV replication of genotypes 1, 3, and 4	inhibits HCV infection	cell permeable	co-localized with HCV E2	associates with E2	–	–
B1	–	–	–	–	–	–	–	–	–	–	–	–	–	no binding	no binding
